# What was measured:
# Type in all cases: in vivo
# [1] = system: redroot pigweed (Amaranthus retroflexus, AMARE); assay: Pre-emerge test, greenhouse herbicide activity screening; conditions: rated 14 days after application, 0 = no damage, 100 = complete death
# How it was run: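 Sandy loam pots; pre-emerge: sown 1 d pre-spray, surface-watered after, then bottom-watered. Post-emerge: sown 8–21 d before, 2–3 leaf stage, + 0.25% v/v NIS, bottom-watered. Acetone, 187 l/ha track spray, 15–1000 g ai/ha. 0–100 injury score, day 14.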
# [2] = system: upland rice (Oryza sp., var. Tebonnet, RICE); assay: Post-emerge test, crop safety; conditions: phytotoxicity rating 0-100 (0 no damage, 100 complete death), 14 days after application
# How it was run: (§1)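 Compounds in acetone were track-sprayed at 187 l/ha, 15–1000 g ai/ha, onto sandy loam pots. Pre-emerge seeds were sown one day before spraying, with surface watering afterwards. Post-emerge plants were at the 2–3 leaf stage and sprayed with 0.25% v/v non-ionic surfactant. Injury was rated 0–100 at 14 days.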
# [3] = system: field corn (Zea mays L., var. Dekalb 535, CORN); assay: Post-emerge test, crop safety; conditions: phytotoxicity rating 0-100 (0 no damage, 100 complete death), 14 days after application
# How it was run: as §1
# [4] = system: lambsquarters (Chenopodium album, CHEAL); assay: Post-emerge test, greenhouse herbicide activity screening; conditions: phytotoxicity rating 0-100 (0 no damage, 100 complete death), 14 days after application
# How it was run: (§2)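 Rating: 0–100 visual injury, 14 DAA. Application: acetone, 187 l/ha, 15–1000 g ai/ha, flat-fan track sprayer with nozzle 40–45 cm above soil or canopy. Post-emerge runs used 0.25% v/v surfactant on 2–3 leaf plants.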
# [5] = system: large crabgrass (Digitaria sanguinalis, DIGSA); assay: as above; conditions: phytotoxicity rating 0-100 (0 no damage, 100 complete death), 14 days after application
# How it was run: as §2
# [6] = system: redroot pigweed (Amaranthus retroflexus, AMARE); assay: as above; conditions: phytotoxicity rating 0-100 (0 no damage, 100 complete death), 14 days after application
# How it was run: as §2
# [7] = system: ivyleaf morningglory (Ipomoea hederacea, IPOHE); assay: as above; conditions: phytotoxicity rating 0-100 (0 no damage, 100 complete death), 14 days after application
# How it was run: as §2
# [8] = system: sicklepod (Cassia obtusifolia, CASOB); assay: as above; conditions: phytotoxicity rating 0-100 (0 no damage, 100 complete death), 14 days after application
# How it was run: as §2
# [9] = system: velvetleaf (Abutilon theophrasti, ABUTH); assay: as above; conditions: phytotoxicity rating 0-100 (0 no damage, 100 complete death), 14 days after application
# How it was run: as §2
# [10] = system: green foxtail (Setaria viridis, SETVI); assay: as above; conditions: phytotoxicity rating 0-100 (0 no damage, 100 complete death), 14 days after application
# How it was run: as §2
# [11] = system: johnsongrass (Sorghum halepense, SORHA); assay: as above; conditions: phytotoxicity rating 0-100 (0 no damage, 100 complete death), 14 days after application
# How it was run: as §2
# [12] = system: barnyardgrass (Echinochloa crus-galli, ECHCG); assay: as above; conditions: phytotoxicity rating 0-100 (0 no damage, 100 complete death), 14 days after application
# How it was run: as §2
# [13] = system: upland rice (Oryza sp., var. Tebonnet, RICE); assay: Pre-emerge test, crop safety; conditions: rated 14 days after application, 0 = no damage, 100 = complete death
# How it was run: (§3)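 Applied at 15–1000 g ai/ha from acetone in 187 l/ha spray volume. Post-emergence applications included 0.25% v/v non-ionic surfactant and reached plants sown 8–21 days before. Pre-emergence applications were incorporated by surface watering. Efficacy or crop damage was rated on a 0–100 scale after 14 days.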
# [14] = system: field corn (Zea mays L., var. Dekalb 535, CORN); assay: Pre-emerge test, crop safety; conditions: rated 14 days after application, 0 = no damage, 100 = complete death
# How it was run: as §3
# [15] = system: lambsquarters (Chenopodium album, CHEAL); assay: Pre-emerge test, greenhouse herbicide activity screening; conditions: rated 14 days after application, 0 = no damage, 100 = complete death
# How it was run: as §1
# [16] = system: large crabgrass (Digitaria sanguinalis, DIGSA); assay: as above; conditions: rated 14 days after application, 0 = no damage, 100 = complete death
# How it was run: as §1
# [17] = system: ivyleaf morningglory (Ipomoea hederacea, IPOHE); assay: as above; conditions: rated 14 days after application, 0 = no damage, 100 = complete death
# How it was run: as §1
# [18] = system: sicklepod (Cassia obtusifolia, CASOB); assay: as above; conditions: rated 14 days after application, 0 = no damage, 100 = complete death
# How it was run: as §1
# [19] = system: velvetleaf (Abutilon theophrasti, ABUTH); assay: as above; conditions: rated 14 days after application, 0 = no damage, 100 = complete death
# How it was run: as §1
# [20] = system: green foxtail (Setaria viridis, SETVI); assay: as above; conditions: rated 14 days after application, 0 = no damage, 100 = complete death
# How it was run: as §1
# [21] = system: johnsongrass (Sorghum halepense, SORHA); assay: as above; conditions: rated 14 days after application, 0 = no damage, 100 = complete death
# How it was run: as §1
# [22] = system: barnyardgrass (Echinochloa crus-galli, ECHCG); assay: as above; conditions: rated 14 days after application, 0 = no damage, 100 = complete death
# How it was run: as §1
compound,measurement,setting,value
CCc1ccc(C(=O)Nc2c(OCC#N)c(Cl)cc(F)c2-n2c(=O)cc(C(F)(F)F)n(C)c2=O)cc1 [2-28],"Pre-emerge Herbicidal Activity AMARE (phytotoxicity rating, scale 0-100)",[1]; 63 g ai/ha,100
same,"Pre-emerge Herbicidal Activity AMARE (phytotoxicity rating, scale 0-100)",[1]; 250 g ai/ha,100
same,Post-emerge Herbicidal Activity RICE (crop damage),[2]; 63 g ai/ha,90
same,Post-emerge Herbicidal Activity RICE (crop damage),[2]; 250 g ai/ha,90
same,Post-emerge Herbicidal Activity CORN (crop damage),[3]; 63 g ai/ha,15
same,Post-emerge Herbicidal Activity CORN (crop damage),[3]; 250 g ai/ha,25
same,Post-emerge Herbicidal Activity CHEAL,[4]; 63 g ai/ha,60
same,Post-emerge Herbicidal Activity CHEAL,[4]; 250 g ai/ha,60
same,Post-emerge Herbicidal Activity DIGSA,[5]; 63 g ai/ha,0
same,Post-emerge Herbicidal Activity DIGSA,[5]; 250 g ai/ha,0
same,Post-emerge Herbicidal Activity AMARE,[6]; 63 g ai/ha,100
same,Post-emerge Herbicidal Activity AMARE,[6]; 250 g ai/ha,100
same,Post-emerge Herbicidal Activity IPOHE,[7]; 63 g ai/ha,60
same,Post-emerge Herbicidal Activity IPOHE,[7]; 250 g ai/ha,50
same,Post-emerge Herbicidal Activity CASOB,[8]; 63 g ai/ha,30
same,Post-emerge Herbicidal Activity CASOB,[8]; 250 g ai/ha,20
same,Post-emerge Herbicidal Activity ABUTH,[9]; 63 g ai/ha,100
same,Post-emerge Herbicidal Activity ABUTH,[9]; 250 g ai/ha,100
same,Post-emerge Herbicidal Activity SETVI,[10]; 63 g ai/ha,30
same,Post-emerge Herbicidal Activity SETVI,[10]; 250 g ai/ha,30
same,Post-emerge Herbicidal Activity SORHA,[11]; 63 g ai/ha,0
same,Post-emerge Herbicidal Activity SORHA,[11]; 250 g ai/ha,0
same,Post-emerge Herbicidal Activity ECHCG,[12]; 63 g ai/ha,0
same,Post-emerge Herbicidal Activity ECHCG,[12]; 250 g ai/ha,0
same,"Pre-emerge crop damage RICE (phytotoxicity rating, scale 0-100)",[13]; 63 g ai/ha,60
same,"Pre-emerge crop damage RICE (phytotoxicity rating, scale 0-100)",[13]; 250 g ai/ha,70
same,"Pre-emerge crop damage CORN (phytotoxicity rating, scale 0-100)",[14]; 63 g ai/ha,0
same,"Pre-emerge crop damage CORN (phytotoxicity rating, scale 0-100)",[14]; 250 g ai/ha,10
same,"Pre-emerge Herbicidal Activity CHEAL (phytotoxicity rating, scale 0-100)",[15]; 63 g ai/ha,100
same,"Pre-emerge Herbicidal Activity CHEAL (phytotoxicity rating, scale 0-100)",[15]; 250 g ai/ha,100
same,"Pre-emerge Herbicidal Activity DIGSA (phytotoxicity rating, scale 0-100)",[16]; 63 g ai/ha,50
same,"Pre-emerge Herbicidal Activity DIGSA (phytotoxicity rating, scale 0-100)",[16]; 250 g ai/ha,90
same,"Pre-emerge Herbicidal Activity IPOHE (phytotoxicity rating, scale 0-100)",[17]; 63 g ai/ha,80
same,"Pre-emerge Herbicidal Activity IPOHE (phytotoxicity rating, scale 0-100)",[17]; 250 g ai/ha,100
same,"Pre-emerge Herbicidal Activity CASOB (phytotoxicity rating, scale 0-100)",[18]; 63 g ai/ha,5
same,"Pre-emerge Herbicidal Activity CASOB (phytotoxicity rating, scale 0-100)",[18]; 250 g ai/ha,100
same,"Pre-emerge Herbicidal Activity ABUTH (phytotoxicity rating, scale 0-100)",[19]; 63 g ai/ha,100
same,"Pre-emerge Herbicidal Activity ABUTH (phytotoxicity rating, scale 0-100)",[19]; 250 g ai/ha,100
same,"Pre-emerge Herbicidal Activity SETVI (phytotoxicity rating, scale 0-100)",[20]; 63 g ai/ha,50
same,"Pre-emerge Herbicidal Activity SETVI (phytotoxicity rating, scale 0-100)",[20]; 250 g ai/ha,100
same,"Pre-emerge Herbicidal Activity SORHA (phytotoxicity rating, scale 0-100)",[21]; 63 g ai/ha,10
same,"Pre-emerge Herbicidal Activity SORHA (phytotoxicity rating, scale 0-100)",[21]; 250 g ai/ha,50
same,"Pre-emerge Herbicidal Activity ECHCG (phytotoxicity rating, scale 0-100)",[22]; 63 g ai/ha,0
same,"Pre-emerge Herbicidal Activity ECHCG (phytotoxicity rating, scale 0-100)",[22]; 250 g ai/ha,20
COc1c(Cl)cc(F)c(-n2c(=O)cc(C(F)(F)F)n(C)c2=O)c1NC(=O)c1ccc(C)c(C)c1 [2-32],"Pre-emerge Herbicidal Activity, phytotoxicity rating (0-100), AMARE",[1]; 63 g ai/ha,100
same,"Pre-emerge Herbicidal Activity, phytotoxicity rating (0-100), AMARE",[1]; 250 g ai/ha,100
same,Post-emerge Herbicidal Activity RICE (crop damage),[2]; 63 g ai/ha,30
same,Post-emerge Herbicidal Activity RICE (crop damage),[2]; 250 g ai/ha,80
same,Post-emerge Herbicidal Activity CORN (crop damage),[3]; 63 g ai/ha,30
same,Post-emerge Herbicidal Activity CORN (crop damage),[3]; 250 g ai/ha,95
same,Post-emerge Herbicidal Activity CHEAL,[4]; 63 g ai/ha,95
same,Post-emerge Herbicidal Activity CHEAL,[4]; 250 g ai/ha,100
same,Post-emerge Herbicidal Activity DIGSA,[5]; 63 g ai/ha,0
same,Post-emerge Herbicidal Activity DIGSA,[5]; 250 g ai/ha,70
same,Post-emerge Herbicidal Activity AMARE,[6]; 63 g ai/ha,100
same,Post-emerge Herbicidal Activity AMARE,[6]; 250 g ai/ha,100
same,Post-emerge Herbicidal Activity IPOHE,[7]; 63 g ai/ha,100
same,Post-emerge Herbicidal Activity IPOHE,[7]; 250 g ai/ha,100
same,Post-emerge Herbicidal Activity CASOB,[8]; 63 g ai/ha,80
same,Post-emerge Herbicidal Activity CASOB,[8]; 250 g ai/ha,100
same,Post-emerge Herbicidal Activity ABUTH,[9]; 63 g ai/ha,100
same,Post-emerge Herbicidal Activity ABUTH,[9]; 250 g ai/ha,100
same,Post-emerge Herbicidal Activity SETVI,[10]; 63 g ai/ha,0
same,Post-emerge Herbicidal Activity SETVI,[10]; 250 g ai/ha,90
same,Post-emerge Herbicidal Activity SORHA,[11]; 63 g ai/ha,50
same,Post-emerge Herbicidal Activity SORHA,[11]; 250 g ai/ha,95
same,Post-emerge Herbicidal Activity ECHCG,[12]; 63 g ai/ha,0
same,Post-emerge Herbicidal Activity ECHCG,[12]; 250 g ai/ha,90
same,"Pre-emerge phytotoxicity rating (0-100), crop damage, RICE",[13]; 63 g ai/ha,80
same,"Pre-emerge phytotoxicity rating (0-100), crop damage, RICE",[13]; 250 g ai/ha,99
same,"Pre-emerge phytotoxicity rating (0-100), crop damage, CORN",[14]; 63 g ai/ha,40
same,"Pre-emerge phytotoxicity rating (0-100), crop damage, CORN",[14]; 250 g ai/ha,95
same,"Pre-emerge Herbicidal Activity, phytotoxicity rating (0-100), CHEAL",[15]; 63 g ai/ha,100
same,"Pre-emerge Herbicidal Activity, phytotoxicity rating (0-100), CHEAL",[15]; 250 g ai/ha,100
same,"Pre-emerge Herbicidal Activity, phytotoxicity rating (0-100), DIGSA",[16]; 63 g ai/ha,100
same,"Pre-emerge Herbicidal Activity, phytotoxicity rating (0-100), DIGSA",[16]; 250 g ai/ha,100
same,"Pre-emerge Herbicidal Activity, phytotoxicity rating (0-100), IPOHE",[17]; 63 g ai/ha,100
same,"Pre-emerge Herbicidal Activity, phytotoxicity rating (0-100), IPOHE",[17]; 250 g ai/ha,100
same,"Pre-emerge Herbicidal Activity, phytotoxicity rating (0-100), CASOB",[18]; 63 g ai/ha,95
same,"Pre-emerge Herbicidal Activity, phytotoxicity rating (0-100), CASOB",[18]; 250 g ai/ha,100
same,"Pre-emerge Herbicidal Activity, phytotoxicity rating (0-100), ABUTH",[19]; 63 g ai/ha,100
same,"Pre-emerge Herbicidal Activity, phytotoxicity rating (0-100), ABUTH",[19]; 250 g ai/ha,100
same,"Pre-emerge Herbicidal Activity, phytotoxicity rating (0-100), SETVI",[20]; 63 g ai/ha,100
same,"Pre-emerge Herbicidal Activity, phytotoxicity rating (0-100), SETVI",[20]; 250 g ai/ha,100
same,"Pre-emerge Herbicidal Activity, phytotoxicity rating (0-100), SORHA",[21]; 63 g ai/ha,90
same,"Pre-emerge Herbicidal Activity, phytotoxicity rating (0-100), SORHA",[21]; 250 g ai/ha,100
same,"Pre-emerge Herbicidal Activity, phytotoxicity rating (0-100), ECHCG",[22]; 63 g ai/ha,99
same,"Pre-emerge Herbicidal Activity, phytotoxicity rating (0-100), ECHCG",[22]; 250 g ai/ha,100
